From US9987296B2, “Compositions including anthocyanin or anthocyanidin for the prevention or treatment of Articular cartilage-associated conditions” (priority 2008, dated 2018)
“Also recorded” adds a separate entry of the source.

Tests used:
IGF-1 = assay: Real time RT-PCR for IGF-1 in human chondrocytes; assay type: cell-based; conditions: for IGF-1 gene expression compared to IL-1 alone: 5 or 50 ug/mL with IL-1, 50 ug/mL alone (FIGS. 3, 4)
Experimental: Chondrocytes were prepared by the enzymatic digestion of knee cartilage, as previously described. (Ahmed S et al., J Nutr 2005 135:20962102). Chondrocytes were plated (1×10^6 cells/mL) in 35 mm culture dishes (BD, Mountain View, Calif.) and cultured in DMEM:F12 (Mediatech, Herndon, Va.) supplemented with 10% FCS and 1% Penn:Strep for 72 hrs at 37° C. and 5% CO2 in a tissue culture incubator. Chondrocytes were serum starved overnight and then exposed to either kuromanin or cyanidin chloride (5 or 50 ug/mL), progrado (2 or 10 ug/mL) alone or in combination in fresh serum-free medium for 1 hr prior to the addition of IL-β.
Total cytoplasmic RNA was prepared from primary cultures of human chondrocytes using a commercially available kit according to the instructions of the manufacturer (Qiagen, Valencia, Calif.). Real time quantitative RT-PCR with internal fluorescent hybridization probes was performed as previously described (Ahmed S et al., ECAM 2005 2:301-8) and the IGF-1 gene expression was quantified using a commercially available Gene Expression Assay kit (Applied Biosystems, CA). Expression of IGF-1 mRNA was normalized to […] mRNA expression. and the results were expressed as fold induction relative to controls.

[1] = system: bovine cartilage explants; assay: Matrix synthesis (35S uptake) in bovine cartilage explants; assay type: cell-based
Experimental: Bovine cartilage explants (full thickness, 6 mm in diameter) were harvested from fresh femoral condyles. Human osteochondral plugs were harvested using 6 mm osteochondral grafting donor tool (Arthrez 1981-06S, Naples, Fla.) from femoral condyles retrieved from total knee arthroplasty surgery that had been stored in DMEM at 20 degrees C. for less than 24 hours. Full-thickness cartilage explants were cut from the subchondral bone. Each of the 6 mm cartilage disks were divided into 4 equal quadrants. Each quadrant was placed in a different experimental group. This allowed for a paired comparison and controlled for differences in grade of arthritis, thickness of cartilage, cell density, etc. The explants were washed 4-5 times with DMEM with 10% calf serum and were allowed to stabilize for 24 hours in a tissue culture incubator. Explants were then serum starved (0.1% calf serum) for 24 hours prior to commencement of cyanidin chloride treatment.
3 mL fresh media with 20 uCi/mL of ^35S-labeled sodium sulfate (NEX0414 Perkin Elmer, Boston, Mass.) (DMEM with 10% CS) was added to each of the explants along with 30 uL of 50 mM stock cyanidin chloride (MW 322.7 g/mole) solution (diluted in DMSO) (Chromadex Inc., Irvine, Calif.) to give the final cyanidin chloride concentration of (200 or 500 uM) in culture. Explants were subjected to cyanidin chloride treatment for 48 hours.
Radioactive media was aspirated after 48 hours and explants were washed in ice-cold 1×PBS for 10 minutes×3. Each cartilage explant quadrant was blotted dry and was placed in 500 uL of 2 mg/mL Proteinase K (Fisher Scientific, Fair Lawn, N.J.) in TE Buffer solution (10 mM Tris, 1 mM EDTA) and was allowed to rotate at 57 degrees C. for 24 hours in a hybridization oven until completely dissolved. Quantification of ^35S-labeled proteoglycans complexed to alcian blue by rapid filtration in multiwall plates was adopted and modified from Masuda et al Anal. Biochem 1994; 217:167-75. 75 uL of dilution buffer (50 mM Sodium Acetate pH^− 5.8. 0.5% Triton X-100) was added to each well of a 96 well plate (Millipore Multiscreen 96-well filtration system, Millipore, Billerica, Mass.) 25 uL of each digested cartilage explant sample was then loaded followed by 150 uL of 0.2% alcian blue solution (Alcian Blue 8GX electrophoresis grade, Sigma-Aldrich Inc., St. Louis Mo.) and was allowed to rotate for 1 hour at room temperature. The 96-well plate was then placed over a vacuum-manifold to aspirate the contents of the wells through the screen. The 3×200 uL vacuum washes with wash buffer (50 mM sodium acetate pI-I 5.8, 100 mM sodium sulfate, 50 mM MgCl2) were then performed. The 96-well filtration plate was then completely dried at 57 degrees C. for 5 minutes in a hybridization oven and was exposed to storage phosphor screen for 24 hours (Packard Instrument Company Inc., Meriden. Conn.). Phosphorimaging with Cyclone model A431200 (Packard Instrument Company Inc. Meriden, Conn.) was performed to quantify ^35S uptake by proteoglycans. ^35S uptake by proteoglycans in cartilage explants was normalized to DNA by Quant-iT ds DNA Assay Kit (Invitrogen Inc., Carlsbad Calif.).
The effect of cyanidin on bovine cartilage explants was tested. The dose response was also determined. Cartilage explants were treated with 1L-1 (50 ng/mL) for 24 hours. IL-1 reduces matrix synthesis and induces an inflammatory respond similar to osteoarthritis. Explants were then treated with cyanidin chloride at either 200 or 500 uM concentration for 24 hours. Matrix synthesis was monitored by measuring uptake of ^35S.
Bovine explants were initially subjected to IL-1 treatment for 24 hours. Explants were then treated with 500 uM cyanidin chloride in a low glucose (1 g/L) or high glucose concentration (4.5 g/L). […] The higher the glucose concentration increased matrix synthesis by 10%. The cyanidin treatment had small effect under low glucose conditions, but the effect was nearly 20% greater in the high glucose condition.

[2] = system: Human articular chondrocytes; assay: Cell viability (calcein AM / ethidium homodimer staining); assay type: cell-based; conditions: 96 hours
From the text: Chondrocytes were isolated from non-arthritic regions of adult human articular cartilage (N=3 donors) and expanded in tissue culture flasks in DMEM supplemented with 10% calf serum.
At higher concentrations, the color of the anthocyanin interfered with the spectrophotometer reading; therefore, cell viability was additionally measured with calcein staining as follows: Live and dead cells were simultaneously viewed in situ with a confocal microscope (LSM 510; Zeiss, Wetzlar, Germany), using a fluorescent double stain. Calcein AM (1 uM; Invitrogen, Carlsbad, Calif.), a fluorescein derivative that is metabolized by nonspecific esterase present in viable cells, was used to stain live cells. The use of 8 uM ethidium homodimer (Invitrogen), a nucleic acid stain that is excluded by intact cell membranes, enabled visualization of the nuclei of dead cells. After 96-hour exposure to the appropriate concentration of anthocyanins, chondrocytes were cultured in DMEM supplemented with Calcein AM and ethidium homodimer for 45 minutes. Live and dead cells were counted using an automated image analysis script written in Matlab (MathWorks, Natick, Mass.) to measure percentage cell viability.

[3] = system: bovine cartilage explants; assay: Matrix synthesis (35S uptake) in bovine cartilage explants; assay type: cell-based; remark: listed apart in the source
[4] = cited from earlier work
[5] = in vitro; cited from earlier work
[6] = system: rodent pancreatic beta-cells; conditions: in culture, with 4 and 10 mM glucose; cited from earlier work

Row | SMILES | IGF-1 gene expression (IGF-1; 50 ug/mL dose, duplicate, called anomalous) | IGF-1 gene expression compared to IL-1 alone (IGF-1) | effect on matrix synthesis, greater in high glucose than in low glucose ([1]; 500 uM, high glucose (4.5 g/L), after IL-1) | effect on matrix synthesis ([1]; 500 uM, low glucose (1 g/L), after IL-1) | matrix synthesis (35S uptake) ([1]; IL-1 50 ng/mL 24 hours, then 200 or 500 uM for 24 hours, listed as Cyanidin) | matrix synthesis (35S uptake) ([1]; IL-1 50 ng/mL 24 hours, then 200 or 500 uM for 24 hours, listed as cyanidin) | matrix synthesis (35S uptake) ([1]; IL-1 50 ng/mL 24 hours, then 200 or 500 uM for 24 hours, listed as cyanidin chloride) | matrix synthesis (35S uptake) ([1]; after IL-1, 500 uM combined with high glucose (4.5 g/L)) | cell viability ([2]; 500 uM) | toxicity relative to the other compounds tested ([2]; concentrations above 100 uM up to 500 uM) | chondroprotective activity, greater than under low glucose ([3]; higher glucose conditions (5%) as printed) | chondroprotective activity ([3]; low glucose levels (2.5%) as printed) | IGF-1 gene expression (IGF-1; IL-1 with compound at 5 or 50 ug/mL) | half-life [4] | oxygen radical absorbing capacity compared to Trolox (Vitamin E) [5] | insulin secretion [6] | increase of matrix synthesis ([1]; higher glucose concentration (4.5 g/L vs 1 g/L), after IL-1)
1 | Oc1cc(O)c2cc(O)c(-c3ccc(O)c(O)c3)[o+]c2c1 [Cyanidin chloride] | elevated above control | increased IGF-1 gene expression more than kuromanin; also recorded: greater compared to IL-1 alone when treated with cyanidin alone or in combination with IL-1 | ~20% | small effect | inconsistent effect | Initially a dose response was identified but difficult to reproduce | we could not reproduce this effect in several subsequent experiments | significantly induce chondroreparative activity; also recorded: increased matrix synthesis the most | completely reducing cell viability | most toxic | ~20% | some chondroprotective activity | – | – | – | – | –
2 | OC[C@H]1O[C@@H](Oc2cc3c(O)cc(O)cc3[o+]c2-c2ccc(O)c(O)c2)[C@H](O)[C@@H](O)[C@@H]1O.[Cl-] [Kuromanin chloride] | – | greater compared to IL-1 alone when treated with kuromanin at high dose | – | – | – | – | – | – | – | – | – | – | no further changing in this pattern | 1.5 to 2 h | 3.5 times | stimulate insulin secretion | –
3 | O=C[C@H](O)[C@@H](O)[C@H](O)[C@H](O)CO [glucose] | – | – | – | – | – | – | – | – | – | – | – | – | – | – | – | – | 10%
